# Assays:
# Type in all cases: in vivo
# [1] = tested on: Matricaria inodora; test: Herbicidal effect post-emergence, MATIN
# Protocol: (§1) Seeds of mono- and dicotyledonous weed plants and crop plants are planted in wood-fiber pots in sandy loam, covered with earth and grown in a greenhouse under good growth conditions. 2 to 3 weeks after sowing, the test plants are treated in the single-leaf stage. The compounds according to the invention, formulated in the form of wettable powders (WP) or as emulsion concentrates (EC), are then sprayed onto the green plant parts as aqueous suspension or emulsion using an application rate of 600 to 800 l of water/ha (converted) with the addition of 0.2% by weight of wetting agent. After the test plants had been in the greenhouse for ca. 3 weeks under optimum growth conditions, the effect of the preparations is scored visually in comparison with untreated controls (herbicidal effect in percent (%): 100% effect=plants have died off, 0% effect=as control plants).
# [2] = tested on: Veronica persica; test: Herbicidal effect post-emergence, VERPE
# Protocol: as §1
# [3] = tested on: Polygonum (Fallopia) convolvulus; test: Herbicidal effect post-emergence, POLCO
# Protocol: as §1
# [4] = tested on: Abutilon theophrasti; test: Herbicidal effect post-emergence, ABUTH
# Protocol: as §1
# [5] = tested on: Veronica persica; test: Herbicidal effect pre-emergence, VERPE; settings: 320 g/hectare, visual grading after 3 weeks vs untreated controls
# Excerpt: (§2) Seeds of mono- and dicotyledonous weed plants and crop plants are planted in wood-fiber pots in sandy loam and covered with earth. The compounds according to the invention, formulated in the form of wettable powders (WP) or as emulsion concentrates (EC), are then applied to the surface of the covering earth as aqueous suspension or emulsion at an application rate corresponding to 320 g/hectare at an application rate of 600 to 800 l of water/ha (converted) with the addition of 0.2% wetting agent.
# (§3) Following treatment, the pots are placed in a greenhouse and kept under good growth conditions for the test plants. The visual grading of the damage to the test plants is carried out after a test time of 3 weeks in comparison to untreated controls (herbicidal effect in percent (%): 100% effect=plants have died off, 0% effect=as control plants).
# [6] = tested on: Viola tricolor; test: Herbicidal effect pre-emergence, VIOTR; settings: 320 g/hectare, visual grading after 3 weeks vs untreated controls
# Excerpt: as §2, §3
# [7] = tested on: Viola tricolor; test: Herbicidal effect post-emergence, VIOTR
# Protocol: as §1
# [8] = tested on: Setaria viridis; test: Herbicidal effect post-emergence, SETVI
# Protocol: as §1
# [9] = tested on: Echinochloa crus-galli; test: Herbicidal effect post-emergence, ECHCG
# Protocol: as §1
# [10] = tested on: Amaranthus retroflexus; test: Herbicidal effect post-emergence, AMARE
# Protocol: as §1
# [11] = tested on: Amaranthus retroflexus; test: Herbicidal effect pre-emergence, AMARE; settings: 320 g/hectare, visual grading after 3 weeks vs untreated controls
# Excerpt: as §2, §3
# [12] = tested on: Stellaria media; test: Herbicidal effect post-emergence, STEME
# Protocol: as §1
# [13] = 0.32 kg and less of active substance per hectare, visual score after ca. 3 weeks vs untreated controls
SMILES,"Effect in % in respect of stated plant, ABUTH [4] [%]","Effect in % in respect of stated plant, VERPE [5] [%]","Effect in % in respect of stated plant, VIOTR [7] [%]","Effect in % in respect of stated plant, VERPE [2] [%]","Effect in % in respect of stated plant, MATIN [1] [%]","Effect in % in respect of stated plant, POLCO [3] [%]","Effect in % in respect of stated plant, AMARE [10] [%]",further results
"N#CC(C#N)c1nc(-c2ccccc2)nc(N)c1Cl [Ex. No. 1, [6-Amino-5-chloro-2-phenylpyrimidin-4-yl]propanedinitrile]",–,–,–,–,–,–,–,"herbicidal effect [1, 13]: at least 80%; herbicidal effect [2, 13]: at least 80%; herbicidal effect [3, 13]: at least 80%"
"N#CC(C#N)c1nc(-c2ccc(Cl)cc2)nc(N)c1Cl [Ex. No. 29, [6-Amino-5-chloro-2-(4-chlorophenyl)pyrimidin-4-yl]propanedinitrile]",80,100,80,90,–,–,–,"Effect in % in respect of stated plant, VIOTR [6]: 80%"
N#CC(C#N)c1nc(-c2ccc(C(F)(F)F)cc2)nc(N)c1Cl [compound 45],–,–,80,90,80,80,–,"Effect in % in respect of stated plant, SETVI [8]: 80%"
N#CC(C#N)c1nc(-c2ccc(Cl)c(C(F)(F)F)c2)nc(N)c1Cl [compound 87],–,–,–,90,90,–,–,–
N#CC(C#N)c1nc(-c2ccc(Cl)c(Cl)c2)nc(N)c1Cl [compound 104],80,–,80,90,90,80,90,"Effect in % in respect of stated plant, SETVI [8]: 80%; Effect in % in respect of stated plant, ECHCG [9]: 80%"
N#CC(C#N)c1nc(-c2ccc(Cl)cc2Cl)nc(N)c1Cl [compound 186],100,100,80,90,90,100,100,"Effect in % in respect of stated plant, AMARE [11]: 90%; Effect in % in respect of stated plant, STEME [12]: 90%"
N#CC(C#N)c1nc(-c2ccc(F)cc2F)nc(N)c1Cl [compound 201],–,–,–,90,80,90,90,–
N#CC(C#N)c1nc(-c2cc(F)ccc2N)nc(N)c1Cl [compound 203],–,90,–,–,–,–,–,"Effect in % in respect of stated plant, AMARE [11]: 100%"
Cc1ccc(-c2nc(N)c(Cl)c(C(C#N)C#N)n2)cc1F [compound 204],90,–,–,80,80,80,90,"Effect in % in respect of stated plant, ECHCG [9]: 80%"
Cc1cc(-c2nc(N)c(Cl)c(C(C#N)C#N)n2)ccc1F [compound 205],–,100,–,–,–,–,–,"Effect in % in respect of stated plant, VIOTR [6]: 100%"
N#CC(C#N)c1nc(-c2cccc(Cl)c2Cl)nc(N)c1Cl [compound 207],80,–,–,90,80,100,100,"Effect in % in respect of stated plant, STEME [12]: 80%"
N#CC(C#N)c1nc(-c2cc(F)c(Cl)c(F)c2)nc(N)c1Cl [compound 210],–,80,–,80,–,–,90,"Effect in % in respect of stated plant, VIOTR [6]: 100%"
N#CC(C#N)c1nc(C2CCCCC2)nc(N)c1Cl [compound 240],80,–,–,90,80,–,–,–
